Measured values published in patent US20260232767A1, “INTERLEUKIN-23 RECEPTOR ANTAGONIST PEPTIDES FOR USE IN THE TREATMENT OF PSORIASIS” (Janssen Pharmaceutica NV, priority 2023, published 2026).

Tested on: subjects with moderate-to-severe plaque psoriasis
Assay: Safety, adverse events, Example 2 through Week 56
Format: in vivo, human
Details: through Week 56; for Subjects with 1 or more Serious adverse events: Tonsillar hypertrophy / Subjects with 1 or more Serious adverse events: Uterine leiomyoma / Subjects with 1 or more Serious adverse events: Ventricular dysfunction / Subjects with 1 or more treatment-emergent adverse events leading to discontinuation of study agent / Subjects with 1 or more Adverse events / Subjects with 1 or more Adverse events: Alanine aminotransferase increased / Subjects with 1 or more Adverse events: Arthralgia / Subjects with 1 or more Adverse events: Aspartate aminotransferase increased / Subjects with 1 or more Adverse events: Bronchitis / Subjects with 1 or more Adverse events: COVID-19 / Subjects with 1 or more Adverse events: Cough / Subjects with 1 or more Adverse events: Diarrhea / Subjects with 1 or more Adverse events: Headache / Subjects with 1 or more Adverse events: Influenza / Subjects with 1 or more Adverse events: Nasopharyngitis / Subjects with 1 or more Adverse events: Upper respiratory tract infection / Subjects with 1 or more Adverse events: Urinary tract infection / Subjects with 1 or more Serious adverse events / Subjects with 1 or more Serious adverse events: COVID-19 / Subjects with 1 or more Serious adverse events: Cerebrovascular accident / Subjects with 1 or more Serious adverse events: Coronary artery disease / Subjects with 1 or more Serious adverse events: Diverticulitis / Subjects with 1 or more Serious adverse events: Foot deformity / Subjects with 1 or more Serious adverse events: Infected cyst / Subjects with 1 or more Serious adverse events: Intervertebral disc protrusion / Subjects with 1 or more Serious adverse events: Ligament injury / Subjects with 1 or more Serious adverse events: Non-cardiac chest pain / Subjects with 1 or more Serious adverse events: Suicide attempt: number of subjects
Text: The LTE safety analysis was based on randomized participants in Example who entered the present long-term extension study and received at least one dose of study intervention (including a partial dose) during the study period.

[1] = Placebo → 100 mg QD after crossover

What does the source list for `CC(=O)NCCCC[C@@H]1NC(=O)[C@H](Cc2c[nH]c3c(C)cccc23)NC(=O)[C@H]([C@@H](C)O)NC(=O)[C@H](CC(N)=O)NC(=O)[C@@H](NC(C)=O)C(C)(C)SSC(C)(C)[C@@H](C(=O)N[C@@H](Cc2ccc(OCCN)cc2)C(=O)N[C@@H](Cc2ccc3ccccc3c2)C(=O)NC2(C(=O)N[C@@H](CCC(=O)O)C(=O)N[C@@H](CC(N)=O)C(=O)N[C@@H](Cc3cccnc3)C(=O)N(C)CC(N)=O)CCOCC2)NC1=O` [IL-23 receptor antagonist peptide, Ac-[Pen]*-N-T-[W(7-Me)]-[Lys(Ac)]-[Pen]*-Phe[4-(2-aminoethoxy)]-[2-Nal]-[THP]-E-N-[3-Pal]-Sarc-NH2 (*[Pen]-[Pen]* formdisulfidebond)]?
Subjects with 1 or more Serious adverse events: Tonsillar hypertrophy (50 mg QD): 0; Subjects with 1 or more Serious adverse events: Uterine leiomyoma (50 mg QD): 0; Subjects with 1 or more Serious adverse events: Ventricular dysfunction (50 mg QD): 0; Subjects with 1 or more treatment-emergent adverse events leading to discontinuation of study agent (50 mg QD): 2; Subjects with 1 or more Adverse events (100 mg BID): 32; Subjects with 1 or more Adverse events: Alanine aminotransferase increased (100 mg BID): 4; Subjects with 1 or more Adverse events: Arthralgia (100 mg BID): 2; Subjects with 1 or more Adverse events: Aspartate aminotransferase increased (100 mg BID): 3; Subjects with 1 or more Adverse events: Bronchitis (100 mg BID): 0; Subjects with 1 or more Adverse events: COVID-19 (100 mg BID): 7; Subjects with 1 or more Adverse events: Cough (100 mg BID): 2; Subjects with 1 or more Adverse events: Diarrhea (100 mg BID): 1; Subjects with 1 or more Adverse events: Headache (100 mg BID): 1; Subjects with 1 or more Adverse events: Influenza (100 mg BID): 1; Subjects with 1 or more Adverse events: Nasopharyngitis (100 mg BID): 5; Subjects with 1 or more Adverse events: Upper respiratory tract infection (100 mg BID): 5; Subjects with 1 or more Adverse events: Urinary tract infection (100 mg BID): 2; Subjects with 1 or more Serious adverse events (100 mg BID): 1; Subjects with 1 or more Serious adverse events: COVID-19 (100 mg BID): 0; Subjects with 1 or more Serious adverse events: Cerebrovascular accident (100 mg BID): 0; Subjects with 1 or more Serious adverse events: Coronary artery disease (100 mg BID): 0; Subjects with 1 or more Serious adverse events: Diverticulitis (100 mg BID): 0; Subjects with 1 or more Serious adverse events: Foot deformity (100 mg BID): 0; Subjects with 1 or more Serious adverse events: Infected cyst (100 mg BID): 0; Subjects with 1 or more Serious adverse events: Intervertebral disc protrusion (100 mg BID): 0; Subjects with 1 or more Serious adverse events: Ligament injury (100 mg BID): 0; Subjects with 1 or more Serious adverse events: Non-cardiac chest pain (100 mg BID): 0; Subjects with 1 or more Serious adverse events: Suicide attempt (100 mg BID): 0; Subjects with 1 or more Serious adverse events: Tonsillar hypertrophy (100 mg BID): 0; Subjects with 1 or more Serious adverse events: Uterine leiomyoma (100 mg BID): 1; Subjects with 1 or more Serious adverse events: Ventricular dysfunction (100 mg BID): 0; Subjects with 1 or more treatment-emergent adverse events leading to discontinuation of study agent (100 mg BID): 1; Subjects with 1 or more Adverse events (100 mg QD): 31; Subjects with 1 or more Adverse events: Alanine aminotransferase increased (100 mg QD): 0; Subjects with 1 or more Adverse events: Arthralgia (100 mg QD): 3; Subjects with 1 or more Adverse events: Aspartate aminotransferase increased (100 mg QD): 0; Subjects with 1 or more Adverse events: Bronchitis (100 mg QD): 0; Subjects with 1 or more Adverse events: COVID-19 (100 mg QD): 5; Subjects with 1 or more Adverse events: Cough (100 mg QD): 3; Subjects with 1 or more Adverse events: Diarrhea (100 mg QD): 1; Subjects with 1 or more Adverse events: Headache (100 mg QD): 5; Subjects with 1 or more Adverse events: Influenza (100 mg QD): 1; Subjects with 1 or more Adverse events: Nasopharyngitis (100 mg QD): 11; Subjects with 1 or more Adverse events: Upper respiratory tract infection (100 mg QD): 2; Subjects with 1 or more Adverse events: Urinary tract infection (100 mg QD): 0; Subjects with 1 or more Serious adverse events (100 mg QD): 3; Subjects with 1 or more Serious adverse events: COVID-19 (100 mg QD): 1; Subjects with 1 or more Serious adverse events: Cerebrovascular accident (100 mg QD): 0; Subjects with 1 or more Serious adverse events: Coronary artery disease (100 mg QD): 0; Subjects with 1 or more Serious adverse events: Diverticulitis (100 mg QD): 1; Subjects with 1 or more Serious adverse events: Foot deformity (100 mg QD): 0; Subjects with 1 or more Serious adverse events: Infected cyst (100 mg QD): 0; Subjects with 1 or more Serious adverse events: Intervertebral disc protrusion (100 mg QD): 1; Subjects with 1 or more Serious adverse events: Ligament injury (100 mg QD): 0; Subjects with 1 or more Serious adverse events: Non-cardiac chest pain (100 mg QD): 0; Subjects with 1 or more Serious adverse events: Suicide attempt (100 mg QD): 1; Subjects with 1 or more Serious adverse events: Tonsillar hypertrophy (100 mg QD): 0; Subjects with 1 or more Serious adverse events: Uterine leiomyoma (100 mg QD): 0; Subjects with 1 or more Serious adverse events: Ventricular dysfunction (100 mg QD): 0; Subjects with 1 or more treatment-emergent adverse events leading to discontinuation of study agent (100 mg QD): 2; Subjects with 1 or more Adverse events (Combined): 174; Subjects with 1 or more Adverse events: Alanine aminotransferase increased (Combined): 9; Subjects with 1 or more Adverse events: Arthralgia (Combined): 8; Subjects with 1 or more Adverse events: Aspartate aminotransferase increased (Combined): 7; Subjects with 1 or more Adverse events: Bronchitis (Combined): 9; Subjects with 1 or more Adverse events: COVID-19 (Combined): 35; Subjects with 1 or more Adverse events: Cough (Combined): 8; Subjects with 1 or more Adverse events: Diarrhea (Combined): 11; Subjects with 1 or more Adverse events: Headache (Combined): 12; Subjects with 1 or more Adverse events: Influenza (Combined): 7; Subjects with 1 or more Adverse events: Nasopharyngitis (Combined): 49; Subjects with 1 or more Adverse events: Upper respiratory tract infection (Combined): 24; Subjects with 1 or more Adverse events: Urinary tract infection (Combined): 8; Subjects with 1 or more Serious adverse events (Combined): 11; Subjects with 1 or more Serious adverse events: COVID-19 (Combined): 1; Subjects with 1 or more Serious adverse events: Cerebrovascular accident (Combined): 1; Subjects with 1 or more Serious adverse events: Coronary artery disease (Combined): 1; Subjects with 1 or more Serious adverse events: Diverticulitis (Combined): 1; Subjects with 1 or more Serious adverse events: Foot deformity (Combined): 1; Subjects with 1 or more Serious adverse events: Infected cyst (Combined): 1; Subjects with 1 or more Serious adverse events: Intervertebral disc protrusion (Combined): 1; Subjects with 1 or more Serious adverse events: Ligament injury (Combined): 1; Subjects with 1 or more Serious adverse events: Non-cardiac chest pain (Combined): 1; Subjects with 1 or more Serious adverse events: Suicide attempt (Combined): 1; Subjects with 1 or more Serious adverse events: Tonsillar hypertrophy (Combined): 1; Subjects with 1 or more Serious adverse events: Uterine leiomyoma (Combined): 1; Subjects with 1 or more Serious adverse events: Ventricular dysfunction (Combined): 1; Subjects with 1 or more treatment-emergent adverse events leading to discontinuation of study agent (Combined): 10; Subjects with 1 or more Adverse events [1]: 23; Subjects with 1 or more Adverse events: Alanine aminotransferase increased [1]: 2; Subjects with 1 or more Adverse events: Arthralgia [1]: 1; Subjects with 1 or more Adverse events: Aspartate aminotransferase increased [1]: 1; Subjects with 1 or more Adverse events: Bronchitis [1]: 1; Subjects with 1 or more Adverse events: COVID-19 [1]: 2; Subjects with 1 or more Adverse events: Cough [1]: 0; Subjects with 1 or more Adverse events: Diarrhea [1]: 1; Subjects with 1 or more Adverse events: Headache [1]: 0; Subjects with 1 or more Adverse events: Influenza [1]: 1; Subjects with 1 or more Adverse events: Nasopharyngitis [1]: 9; Subjects with 1 or more Adverse events: Upper respiratory tract infection [1]: 4; Subjects with 1 or more Adverse events: Urinary tract infection [1]: 2; Subjects with 1 or more Serious adverse events [1]: 1; Subjects with 1 or more Serious adverse events: COVID-19 [1]: 0; Subjects with 1 or more Serious adverse events: Cerebrovascular accident [1]: 1; Subjects with 1 or more Serious adverse events: Coronary artery disease [1]: 0; Subjects with 1 or more Serious adverse events: Diverticulitis [1]: 0; Subjects with 1 or more Serious adverse events: Foot deformity [1]: 0; Subjects with 1 or more Serious adverse events: Infected cyst [1]: 0; Subjects with 1 or more Serious adverse events: Intervertebral disc protrusion [1]: 0; Subjects with 1 or more Serious adverse events: Ligament injury [1]: 0; Subjects with 1 or more Serious adverse events: Non-cardiac chest pain [1]: 0; Subjects with 1 or more Serious adverse events: Suicide attempt [1]: 0; Subjects with 1 or more Serious adverse events: Tonsillar hypertrophy [1]: 0; Subjects with 1 or more Serious adverse events: Uterine leiomyoma [1]: 0; Subjects with 1 or more Serious adverse events: Ventricular dysfunction [1]: 0; Subjects with 1 or more treatment-emergent adverse events leading to discontinuation of study agent [1]: 0; Subjects with Abdominal distension: 0; Subjects with Abscess limb: 0; Subjects with Constipation: 0; Subjects with Gastrointestinal disorders (system organ class): (16.7%); Subjects with Headache: (11.6%)
